From ChEMBL document CHEMBL4052767, “Discovery of a potent angiotensin converting enzyme inhibitor via virtual screening” (Bioorg Med Chem Lett, 2017)

Biological target: Angiotensin-converting enzyme (Homo sapiens) (UniProt P12821)
Assay: Inhibition of recombinant human ACE at 100 uM using Mca-R-P-PG-F-S-A-F-K(Dnp)-OH as substrate measured every 2 mins for 8 mins by fluorescence assay

Chain of Angiotensin-converting enzyme (Homo sapiens) (P12821 whole entry): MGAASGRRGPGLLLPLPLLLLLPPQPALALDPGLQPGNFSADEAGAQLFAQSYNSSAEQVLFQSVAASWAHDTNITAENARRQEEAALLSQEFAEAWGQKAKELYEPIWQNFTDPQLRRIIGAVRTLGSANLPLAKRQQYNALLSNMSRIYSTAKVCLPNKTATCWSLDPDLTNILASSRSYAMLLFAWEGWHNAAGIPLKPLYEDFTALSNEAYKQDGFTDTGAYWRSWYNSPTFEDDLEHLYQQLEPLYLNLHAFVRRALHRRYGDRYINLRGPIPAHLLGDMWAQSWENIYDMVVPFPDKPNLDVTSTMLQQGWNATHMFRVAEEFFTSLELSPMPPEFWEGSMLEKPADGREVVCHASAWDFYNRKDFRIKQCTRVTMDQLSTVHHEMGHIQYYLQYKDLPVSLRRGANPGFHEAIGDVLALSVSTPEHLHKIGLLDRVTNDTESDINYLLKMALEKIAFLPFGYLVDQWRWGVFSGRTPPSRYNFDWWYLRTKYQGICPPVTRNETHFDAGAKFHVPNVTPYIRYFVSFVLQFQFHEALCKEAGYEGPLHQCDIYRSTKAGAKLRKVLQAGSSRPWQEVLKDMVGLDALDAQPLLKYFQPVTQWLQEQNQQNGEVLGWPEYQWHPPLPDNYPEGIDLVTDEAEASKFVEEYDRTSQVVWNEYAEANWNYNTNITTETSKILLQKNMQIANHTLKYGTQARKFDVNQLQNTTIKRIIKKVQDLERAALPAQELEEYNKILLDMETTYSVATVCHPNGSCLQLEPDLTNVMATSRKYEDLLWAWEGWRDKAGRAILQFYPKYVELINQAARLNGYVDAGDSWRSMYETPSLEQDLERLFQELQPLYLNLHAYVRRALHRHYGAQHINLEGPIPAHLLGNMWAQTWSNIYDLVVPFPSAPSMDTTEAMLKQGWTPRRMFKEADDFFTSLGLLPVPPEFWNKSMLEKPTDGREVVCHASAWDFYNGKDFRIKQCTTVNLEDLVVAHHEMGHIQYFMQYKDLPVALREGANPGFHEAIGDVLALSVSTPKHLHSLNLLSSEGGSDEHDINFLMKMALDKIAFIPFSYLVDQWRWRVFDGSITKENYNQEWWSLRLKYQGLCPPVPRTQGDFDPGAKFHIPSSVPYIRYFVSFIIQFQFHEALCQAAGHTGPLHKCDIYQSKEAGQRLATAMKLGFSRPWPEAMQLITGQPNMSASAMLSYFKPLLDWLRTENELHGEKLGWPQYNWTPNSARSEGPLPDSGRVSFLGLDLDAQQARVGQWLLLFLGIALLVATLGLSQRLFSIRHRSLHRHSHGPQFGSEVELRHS

Question: How did the inhibition turn out when `COc1cc(O)ccc1/C=C/C(=O)c1ccc(O)cc1` was run?
Answer: 72.5%

Question: How did the inhibition turn out when `COc1cc(C=O)ccc1O` was run?
Answer: 41.5%

Question: Which inhibition does the source give for `CC[C@H]1CN2CC[C@]3(C(=O)Nc4ccccc43)[C@@H]2C[C@@H]1/C(=C\OC)C(=O)OC` here?
Answer: 10%

Question: With `C=CC(C)(C)c1cc(/C=C/C(=O)c2ccc(O)cc2)c(OC)cc1O` as the compound, how does the inhibition read?
Answer: 111%

Question: `OC[C@H]1O[C@@H](Oc2cc(O)cc(/C=C/c3ccc(O)cc3)c2)[C@H](O)[C@@H](O)[C@@H]1O` was tested. Which inhibition did it give?
Answer: 8.9%

Question: For `O=C(O[C@@H]1Cc2c(O)cc(O)cc2O[C@@H]1c1cc(O)c(O)c(O)c1)c1cc(O)c(O)c(O)c1`, which inhibition is on record?
Answer: 82%

Question: How did the inhibition turn out when `C[C@@H]1O[C@@H](Oc2cc(O)c3c(=O)c(O)c(-c4ccc(O)cc4)oc3c2O)[C@H](O)[C@H](O)[C@H]1O` was run?
Answer: 17.2%

Question: How did the inhibition turn out when `COc1ccc(/C=C/c2cc(O)cc(O[C@@H]3O[C@H](CO)[C@@H](O)[C@H](O)[C@H]3O)c2)cc1O` was run?
Answer: 18.2%

Question: How did the inhibition turn out when `C[C@@H]1CC[C@H]2[C@@H](C)C(=O)O[C@@H]3O[C@@]4(C)CC[C@@H]1[C@]32OO4` was run?
Answer: 17.1%

Question: For `C[C@]1(O)C[C@@H](O)[C@]2(O)C=CO[C@@H](O[C@@H]3O[C@H](CO)[C@@H](O)[C@H](O)[C@H]3O)[C@@H]21`, which inhibition is on record?
Answer: 14.8%
